Experimental data from patent publication US20250346606A1, “CAMPTOTHECIN COMPOUND, PREPARATION METHOD THEREFOR, AND APPLICATION THEREOF” (SICHUAN KELUN-BIOTECH BIOPHARMACEUTICAL CO., LTD., priority 2021, published 2025).

Experiments:
Assay type in all cases: cell-based, Human
SKOV-3 cells = assay: Inhibitory effect of compounds on SKOV-3 cell proliferation; details: Homo sapiens, SK-OV-3, 72 h, read-out: IC50, inhibitory activity on SKOV-3 cell proliferation
Experimental: (1) Cell plating: First, tumor cells SKOV-3 were cultured in corresponding medium, then digested with trypsin, centrifuged, resuspended, and counted, and the cells were adjusted to an appropriate concentration for plating.
(§1) Co-incubation of the compound of the present disclosure and tumor cells: after the cells adhered to the wall, the medium was removed, and the diluted bioactive molecule (the compound of the present disclosure) was added to the wells of the above plate, and incubated for 72 h.
(§2) In vitro cell viability detection: After the incubation, 50 μL of Cell Counting-Lite™ 2.0 reagent (Vazyme/Novazyme) was added to each well, shaken and mixed well in the dark, reacted for 10 minutes, and then the detection was carried out with a microplate reader (manufacturer: BMG, Model: PHERAStar-FS) for reading. The background RLU was obtained by using cell-free medium (with Cell Counting-Lite™), and the vehicle RLU was obtained by using cell-containing medium (with Cell Counting-Lite™). Cell inhibition rate=1−(sample RLU−background RLU)/(solvent RLU−background RLU)×100%. According to the four-parameter model fitting curve, the half maximal inhibitory concentration (IC50) of the compound was calculated, and the detection results were shown in Table 8.

HT29 cells = assay: Inhibitory effect of compounds on HT29 cell proliferation; details: Homo sapiens, HT-29, 72 h, read-out: IC50, inhibitory activity on HT29 cell proliferation
Procedure, shortened: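 Adherent HT29 cells incubated with diluted compounds for 72 h; viability read by luminescence (Cell Counting-Lite 2.0, 10 min). Inhibition calculated against cell-free background and vehicle-treated cells; IC50 from four-parameter curve fit.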

HCC70 cells = assay: Inhibitory effect of compounds on HCC70 cell proliferation; details: Homo sapiens, HCC70, 72 h, read-out: IC50, inhibitory activity on HCC70 cell proliferation
Experimental: (1) Cell plating: First, tumor cells HCC70 were cultured in corresponding medium, then digested with trypsin, centrifuged, resuspended, and counted, and the cells were adjusted to an appropriate concentration for plating.
as §1
as §2, with “16.” for “8.”

NCI-N87 cells = assay: Inhibitory effect of compounds on NCI-N87 cell proliferation; details: Homo sapiens, NCI-N87, 72 h, read-out: IC50, inhibitory activity on NCI-N87 cell proliferation, NCI-N87 human gastric cancer cells, 72 h incubation, Cell Counting-Lite 2.0
Procedure, shortened: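 Adherent NCI-N87 cells were exposed to compound dilutions for 72 h. Viability measured by Cell Counting-Lite 2.0 luminescence, with inhibition calculated against vehicle and cell-free background RLU. IC50 from four-parameter fit.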

Hela cells = assay: Inhibitory effect of compounds on Hela cell proliferation; details: Homo sapiens, HeLa, 72 h, read-out: IC50, inhibitory activity on Hela cell proliferation
Experimental: (1) Cell plating: First, tumor cells Hela were cultured in corresponding medium, then digested with trypsin, centrifuged, resuspended, and counted, and the cells were adjusted to an appropriate concentration for plating.
as §1
as §2, with “14.” for “8.”

NCI-H358 cells = assay: Inhibitory effect of compounds on NCI-H358 cell proliferation; details: Homo sapiens, NCI-H358, 72 h, read-out: IC50, inhibitory activity on NCI-H358 cell proliferation, NCI-H358 human non-small cell lung cancer cells, 72 h incubation, Cell Counting-Lite 2.0
Procedure, shortened: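 Adherent NCI-H358 cells were exposed to compound for 72 h, then viability was read by luminescence (Cell Counting-Lite 2.0). Inhibition calculated from RLU relative to cell-free background and vehicle wells; IC50 from a four-parameter fit.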

A549 cells = assay: Inhibitory effect of compounds on A549 cell proliferation; details: Homo sapiens, A549, 72 h, read-out: IC50, inhibitory activity on A549 cell proliferation
Experimental: (1) Cell plating: First, tumor cells A549 were cultured in the corresponding medium, then digested with trypsin, centrifuged and resuspended, and counted, and the cells were adjusted to an appropriate concentration for plating.
as §1
as §2, with “activity” for “viability”, “4.” for “8.”

## CC[C@@]1(O)C(=O)OCc2c1cc1n(c2=O)Cc2c-1nc1cc(Cl)c(C)c3c1c2[C@@H](NC(=O)C1(O)CC1)CC3 [Example 7 (2-20-A), N-((1S,9S)-5-chloro-9-ethyl-9-hydroxy-4-methyl-10,13-dioxo-2,3,9,10,13,15-hexahydro-1H,12H-benzo[de]pyrano[3′,4′:6,7]indolizino[1,2-b]quinolin-1-yl)-1-hydroxycyclopropane-1-carboxamide]
SKOV-3 cells
  IC50: 6.79 nM
HT29 cells
  IC50: 1.29 nM
HCC70 cells
  IC50: 105 nM
NCI-N87 cells
  IC50: 4.54 nM
Hela cells
  IC50: 11.2 nM
NCI-H358 cells
  IC50: 18.6 nM
A549 cells
  IC50: 8.14 nM
